Experimental data as given in ChEMBL document CHEMBL1201862, “PubChem BioAssay data set” (2004).
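Tested at 5 concentrations; 48 h exposure; 96-well plates; endpoints linearly interpolated, else capped at highest concentration. At the GI50, growth is halved.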 Calls of active or inactive are those of the source. Cut-off read from the data, not from the text of the source: active = GI50 up to about 1.1 µM and inactive = higher.

Experiments:
Experiment in all cases: NCI-60 cell line screen, 48 h
UACC-62 = system: UACC-62
TK-10 = system: TK-10
LXFL 529 = system: LXFL 529
OVCAR-5 = system: OVCAR-5
SK-MEL-5 = system: SK-MEL-5
CCRF-CEM = system: CCRF-CEM
HCT-116 = system: HCT-116
CAKI-1 = system: CAKI-1
SNB-19 = system: SNB-19
KM-20L2 = system: KM-20L2
786-0 = system: 786-0
U-251 = system: U-251
M14 = system: M14
K562 = system: K562
HL-60 = system: HL-60
SK-OV-3 = system: SK-OV-3
UO-31 = system: UO-31
SNB-78 = system: SNB-78
HCC 2998 = system: HCC 2998
NCI-H23 = system: NCI-H23
ACHN = system: ACHN
HT-29 = system: HT-29
M19-MEL = system: M19-MEL
SK-MEL-2 = system: SK-MEL-2
DMS-273 = system: DMS-273
SF-539 = system: SF-539
HCT-15 = system: HCT-15
OVCAR-8 = system: OVCAR-8
SW-620 = system: SW-620
SK-MEL-28 = system: SK-MEL-28
SF-268 = system: SF-268
MOLT-4 = system: MOLT-4
SR = system: SR
DMS-114 = system: DMS-114
NCI-H522 = system: NCI-H522
LOX IMVI = system: LOX IMVI
OVCAR-3 = system: OVCAR-3
NCI-H460 = system: NCI-H460
SF-295 = system: SF-295
EKVX = system: EKVX
HOP-62 = system: HOP-62
COLO 205 = system: COLO 205
IGROV-1 = system: IGROV-1
NCI-H226 = system: NCI-H226
Malme-3M = system: Malme-3M
A549 = system: A549
RPMI-8226 = system: RPMI-8226
SNB-75 = system: SNB-75
DLD-1 = system: DLD-1
SN12C = system: SN12C
RXF 393 = system: RXF 393
UACC-257 = system: UACC-257
MDA-MB-435 = system: MDA-MB-435
NCI/ADR-RES = system: NCI/ADR-RES
OVCAR-4 = system: OVCAR-4
MDA-N = system: MDA-N
MCF7 = system: MCF7
T47D = system: T47D
BT-549 = system: BT-549
MDA-MB-231 = system: MDA-MB-231
Hs-578T = system: Hs-578T
HOP-92 = system: HOP-92
DU-145 = system: DU-145
A498 = system: A498
KM12 = system: KM12
PC-3 = system: PC-3

Measured: GI50

CCOC(=O)C1=C(C(=O)OCC)C2c3ccccc3C=CN2C(C(=O)OCC)=C(SC)S1 (stereo unspecified)
79800 nM: HCT-15
inactive: UACC-62 58100 nM | TK-10 > 100000 nM | LXFL 529 51200 nM | OVCAR-5 > 100000 nM | SK-MEL-5 32400 nM | CCRF-CEM 30800 nM | HCT-116 50700 nM | CAKI-1 > 100000 nM | SNB-19 > 100000 nM | KM-20L2 > 100000 nM | 786-0 > 100000 nM | U-251 50700 nM | M14 89100 nM | K562 41800 nM | HL-60 25900 nM | SK-OV-3 > 100000 nM | UO-31 74100 nM | SNB-78 79100 nM | HCC 2998 > 100000 nM | NCI-H23 87100 nM | ACHN > 100000 nM | HT-29 > 100000 nM | M19-MEL > 100000 nM | SK-MEL-2 > 100000 nM | DMS-273 63100 nM | SF-539 > 100000 nM | OVCAR-8 > 100000 nM | SW-620 92900 nM | SK-MEL-28 > 100000 nM | SF-268 > 100000 nM | MOLT-4 21600 nM | SR 19300 nM | DMS-114 52500 nM | NCI-H522 24400 nM | LOX IMVI 97300 nM | OVCAR-3 96200 nM | NCI-H460 > 100000 nM | SF-295 > 100000 nM | EKVX > 100000 nM | HOP-62 > 100000 nM | COLO 205 91600 nM | IGROV-1 > 100000 nM | NCI-H226 > 100000 nM | Malme-3M > 100000 nM | A549 47600 nM | RPMI-8226 17800 nM | SNB-75 > 100000 nM | DLD-1 > 100000 nM | SN12C 98400 nM | RXF 393 73100 nM | UACC-257 42500 nM

CCC(C)C(N)C(=O)N/N=C\c1c2c(nc3ccccc13)-c1cc3c(c(=O)n1C2)COC(=O)[C@]3(O)CC (stereo partly specified)
356 nM: HCT-15
active: UACC-62 < 10 nM | MDA-MB-435 468 nM | SK-MEL-5 59.4 nM | CCRF-CEM < 10 nM | HCT-116 53.6 nM | NCI/ADR-RES 232 nM | CAKI-1 39.7 nM | SNB-19 < 10 nM | 786-0 36.1 nM | MDA-N 460 nM | U-251 < 10 nM | M14 39 nM | K562 63 nM | HL-60 16.4 nM | MCF7 < 10 nM | SK-OV-3 52.8 nM | T47D < 10 nM | BT-549 174 nM | UO-31 120 nM | HCC 2998 360 nM | NCI-H23 11.2 nM | ACHN < 11.7 nM | HT-29 690 nM | SK-MEL-2 1080 nM | SF-539 < 10 nM | OVCAR-8 45.3 nM | SW-620 127 nM | SK-MEL-28 259 nM | SF-268 < 10 nM | MOLT-4 < 10 nM | SR < 10 nM | HOP-92 80.3 nM | NCI-H522 < 48 nM | LOX IMVI 13.2 nM | OVCAR-3 879 nM | NCI-H460 < 13.4 nM | SF-295 43 nM | HOP-62 11.3 nM | IGROV-1 832 nM | NCI-H226 59.8 nM | Malme-3M 438 nM | A549 173 nM | RPMI-8226 142 nM | SNB-75 25.6 nM | DU-145 15.8 nM | SN12C 15.5 nM | A498 205 nM | KM12 925 nM | PC-3 387 nM | RXF 393 < 28.4 nM | UACC-257 467 nM
inactive: TK-10 4020 nM | OVCAR-5 1520 nM | OVCAR-4 1430 nM | MDA-MB-231 2370 nM | Hs-578T 1820 nM | EKVX 1890 nM | COLO 205 2950 nM
